Assay results taken from PubChem BioAssay (NCI).
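Method: 48-hour compound exposure of cells in 96-well plates, five concentrations, linear interpolation of endpoints. The concentration for full growth arrest is given as TGI.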

How the values were obtained:
Assay in all cases: NCI-60 cell line screen, 48 h
[1] = tested on: 786-0 renal
[2] = tested on: A498 renal
[3] = tested on: A549 NSCLC
[4] = tested on: ACHN renal
[5] = tested on: BT-549 breast
[6] = tested on: CAKI-1 renal
[7] = tested on: CCRF-CEM leukemia
[8] = tested on: COLO 205 colon
[9] = tested on: DU-145 prostate
[10] = tested on: EKVX NSCLC
[11] = tested on: HCT-116 colon
[12] = tested on: HCT-15 colon
[13] = tested on: HL-60(TB) leukemia
[14] = tested on: HOP-62 NSCLC
[15] = tested on: HOP-92 NSCLC
[16] = tested on: HS 578T breast
[17] = tested on: HT29 colon
[18] = tested on: IGROV1 ovarian
[19] = tested on: K-562 leukemia
[20] = tested on: KM12 colon
[21] = tested on: LOX IMVI melanoma
[22] = tested on: M14 melanoma
[23] = tested on: MALME-3M melanoma
[24] = tested on: MCF7 breast
[25] = tested on: MDA-MB-231 breast
[26] = tested on: MDA-MB-435
[27] = tested on: MDA-N
[28] = tested on: MOLT-4 leukemia
[29] = tested on: NCI-H226 lung
[30] = tested on: NCI-H23 lung
[31] = tested on: NCI-H460 lung
[32] = tested on: NCI-H522 lung
[33] = tested on: NCI/ADR-RES ovarian
[34] = tested on: OVCAR-3 ovarian
[35] = tested on: OVCAR-4 ovarian
[36] = tested on: OVCAR-5 ovarian
[37] = tested on: OVCAR-8 ovarian
[38] = tested on: PC-3 prostate
[39] = tested on: RPMI-8226 leukemia
[40] = tested on: RXF 393 renal
[41] = tested on: SF-268 CNS
[42] = tested on: SF-295 CNS
[43] = tested on: SF-539 CNS
[44] = tested on: SK-MEL-2 melanoma
[45] = tested on: SK-MEL-28 melanoma
[46] = tested on: SK-MEL-5 melanoma
[47] = tested on: SK-OV-3 ovarian
[48] = tested on: SN12C renal
[49] = tested on: SNB-19 CNS
[50] = tested on: SNB-75 CNS
[51] = tested on: SR leukemia
[52] = tested on: SW-620 colon
[53] = tested on: T-47D breast
[54] = tested on: TK-10 renal
[55] = tested on: U251 CNS
[56] = tested on: UACC-257 melanoma
[57] = tested on: UACC-62 melanoma
[58] = tested on: UO-31 renal

OC1(c2ccc3ccccc3c2)c2c(c3ccccc3c3ccccc23)C2=NCCN21 (stereo not drawn)
TGI [1]: 25.3 µM | TGI [2]: 44 µM | TGI [3]: > 69.4 µM | TGI [4]: > 100 µM | TGI [5]: > 37.3 µM | TGI [6]: > 100 µM | TGI [7]: > 100 µM | TGI [8]: 4.17 µM | TGI [9]: > 65.3 µM | TGI [10]: 36.3 µM | TGI [11]: 10.3 µM | TGI [12]: > 39.4 µM | TGI [13]: > 100 µM | TGI [14]: 23.3 µM | TGI [15]: 70.3 µM | TGI [16]: 24.2 µM | TGI [17]: 8.63 µM | TGI [18]: 24 µM | TGI [19]: > 100 µM | TGI [20]: 6.12 µM | TGI [21]: 5.41 µM | TGI [22]: 4.29 µM | TGI [23]: 38.1 µM | TGI [24]: 15.8 µM | TGI [25]: > 60.6 µM | TGI [26]: 5.1 µM | TGI [27]: 4.28 µM | TGI [28]: > 100 µM | TGI [29]: > 100 µM | TGI [30]: 47.2 µM | TGI [31]: > 40.5 µM | TGI [32]: 24.8 µM | TGI [33]: 5.22 µM | TGI [34]: 36.9 µM | TGI [35]: 13.9 µM | TGI [36]: > 83.7 µM | TGI [37]: > 30.3 µM | TGI [38]: > 69.3 µM | TGI [39]: 6.87 µM | TGI [40]: 7.68 µM | TGI [41]: 29.2 µM | TGI [42]: 12.2 µM | TGI [43]: 13.1 µM | TGI [44]: > 46.3 µM | TGI [45]: 6.09 µM | TGI [46]: > 100 µM | TGI [47]: 42.8 µM | TGI [48]: > 63.6 µM | TGI [49]: > 58.2 µM | TGI [50]: 14.7 µM | TGI [51]: > 28.4 µM | TGI [52]: 23 µM | TGI [53]: > 40.6 µM | TGI [54]: 35.4 µM | TGI [55]: 17.7 µM | TGI [56]: > 63.5 µM | TGI [57]: > 55.1 µM | TGI [58]: > 48.8 µM
